Starred links: 1 amine or outer side, 2 acyl side, 3 side chain; linkers in the order of their positions; H or OH if unused. Positions of bridges follow the written chain, without caps; N, C: chain ends. Non-standard residues stand in square brackets, D forms with d. Residues, ends and D or L forms follow the SMILES beside them. *: point of attachment. hPhe(3-Cl-4-CF3) = N[C@@H](CCc1ccc(C(F)(F)F)c(Cl)c1)C(=O)O; NMeAbu(4,4,4-F3) = CN[C@@H](CC(F)(F)F)C(=O)O; NMePhe(4-Cl) = CN[C@@H](Cc1ccc(Cl)cc1)C(=O)O; NMePhe(4-Me) = CN[C@@H](Cc1ccc(C)cc1)C(=O)O; NMePhe(3-F) = CN[C@@H](Cc1cccc(F)c1)C(=O)O; NMePhe(4-F) = CN[C@@H](Cc1ccc(F)cc1)C(=O)O; NMedβ3hAla = C[C@H](CC(=O)[*:2])N(C)[*:1]; Phe(3-I) = N[C@@H](Cc1cccc(I)c1)C(=O)O; NMeAla(cPr) = CN[C@@H](CC1CC1)C(=O)O; NMeGly(cBu) = CN[C@H](C(=O)O)C1CCC1; NMeCha = CN[C@@H](CC1CCCCC1)C(=O)O; NMeGly(cPr) = CN[C@H](C(=O)O)C1CC1; Pro(4-oxo) = O=C1CN[C@H](C(=O)O)C1; NMeCba = CN[C@@H](CC1CCC1)C(=O)O; NMeChg = CN[C@H](C(=O)O)C1CCCCC1; NMeF = CN[C@@H](Cc1ccccc1)C(=O)O; NMeI = CC[C@H](C)[C@H](NC)C(=O)O; NMeD = CN[C@@H](CC(=O)O)C(=O)O; NMeL = CN[C@@H](CC(C)C)C(=O)O; NMeV = CN[C@H](C(=O)O)C(C)C; Pip = O=C(O)[C@@H]1CCCCN1; Iva = CC[C@](C)(N)C(=O)O; Morpholide = C1CN(*)CCO1; NMeA = CN[C@@H](C)C(=O)O; Nle = CCCC[C@H](N)C(=O)O; Piperidide = C1CCN(*)CC1; Ac5c = NC1(C(=O)O)CCCC1; Aze = O=C(O)[C@@H]1CCN1; Sar = CNCC(=O)O
What was measured:
[1] = molecular target: T1, Kras and SOS1 (biotin-tagged human Kras loaded with GDP, His-tagged human SOS1) (Homo sapiens, UniProt P01116, G12D); assay: Protein-protein interaction inhibition between Kras and SOS1 (KrasGl2D-SOS PPI) using AlphaScreen; type: binding; details: AlphaScreen; biotin-tagged human Kras loaded with GDP, His-tagged human SOS1; read-out: KRAS G12D-SOS PPI IC50
T1 construct: made in house; host or cells: E. coli (stated for Kras only)
T1 sequence (P01116 1-188 isoform P01116-2 G12D): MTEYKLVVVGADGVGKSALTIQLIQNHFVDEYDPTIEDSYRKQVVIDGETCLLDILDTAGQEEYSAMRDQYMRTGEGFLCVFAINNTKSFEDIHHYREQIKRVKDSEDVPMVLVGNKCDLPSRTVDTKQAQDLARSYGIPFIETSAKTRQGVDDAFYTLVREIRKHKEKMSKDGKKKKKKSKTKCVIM
How it was run: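 Read-out is acceptor-bead light at 520-620 nm, arising when 680 nm-irradiated nickel donor beads pass singlet oxygen to streptavidin acceptors. The bead pair links His-tagged SOS1 with biotin-tagged, GDP-bound Kras from E. coli.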

[2] = tested on: Human pancreatic cancer cell line AsPC-1; assay: Measurement of AsPC-1 cell growth inhibition (AsPC-1 CGI); type: cell-based; details: 96 h
How it was run: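 AsPC-1 cells in 15% FBS RPMI-1640 were exposed to test compound for 96 hours at 37° C, with CellTiter-Glo as endpoint.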

| SMILES | IC50 [1] [nM] | IC50 [2] [nM] |
| --- | --- | --- |
| CC[C@H](C)[C@@H]1NC(=O)[C@H](CC(C)C)N(C)C(=O)C[C@@H](C)N(C)C(=O)[C@H](C(C)C)N(C)C(=O)[C@](C)(CC)NC(=O)[C@@H]2CCCN2C(=O)[C@H](CCc2ccc(C(F)(F)F)c(Cl)c2)NC(=O)CN(C)C(=O)[C@H](CC2CCCCC2)N(C)C(=O)CN(C)C(=O)CN(C)C1=O [Compound 944] (cyclo(I[Sar][Sar][NMeCha][Sar][hPhe(3-Cl-4-CF3)]P[Iva][NMeV][NMedβ3hAla][NMeL])) | 18 | 100 to 500 |
| CC[C@H](C)[C@@H]1NC(=O)[C@H](C2CCC2)N(C)C(=O)C[C@@H](C(=O)N2CCCCC2)N(C)C(=O)[C@H](C(C)C)N(C)C(=O)C2(CCCC2)NC(=O)[C@@H]2CCCN2C(=O)[C@H](CCc2ccc(C(F)(F)F)c(Cl)c2)NC(=O)CN(C)C(=O)[C@H](CC2CCCCC2)N(C)C(=O)CN(C)C(=O)CN(C)C1=O [Compound 948] ([NMeGly(cBu)]I[Sar][Sar][NMeCha][Sar][hPhe(3-Cl-4-CF3)]P[Ac5c][NMeV][NMeD]-Piperidide; lactam N-11) | 3.1 | 50 to 100 |
| CC[C@H](C)[C@@H]1NC(=O)[C@H](CC(C)C)N(C)C(=O)C[C@@H](C(=O)N(C)C)N(C)C(=O)[C@H]([C@@H](C)CC)N(C)C(=O)C2(CCCC2)NC(=O)[C@H](C)NC(=O)[C@H](CCc2ccc(C(F)(F)F)c(Cl)c2)NC(=O)CN(C)C(=O)[C@H](Cc2ccc(C)cc2)N(C)C(=O)[C@@H]2CCN2C(=O)[C@H](C)N(C)C1=O [Compound 957] ([NMeL]I[NMeA][Aze][NMePhe(4-Me)][Sar][hPhe(3-Cl-4-CF3)]A[Ac5c][NMeI][NMeD]-NMe2; lactam N-11) | 0.44 | 100 to 500 |
| CC[C@H](C)[C@@H]1NC(=O)[C@H](CC(C)C)N(C)C(=O)C[C@@H](C(=O)N(C)C)N(C)C(=O)[C@H]([C@@H](C)CC)N(C)C(=O)C2(CCCC2)NC(=O)[C@H](Cc2ccccc2)N(C)C(=O)[C@H](CCc2ccc(C(F)(F)F)c(Cl)c2)NC(=O)CN(C)C(=O)[C@H](Cc2ccc(C)cc2)N(C)C(=O)[C@@H]2CCN2C(=O)[C@H](C)N(C)C1=O [Compound 958] ([NMeL]I[NMeA][Aze][NMePhe(4-Me)][Sar][hPhe(3-Cl-4-CF3)][NMeF][Ac5c][NMeI][NMeD]-NMe2; lactam N-11) | 2.1 | 20 to 50 |
| CC[C@H](C)[C@@H]1NC(=O)[C@H](CC(C)C)N(C)C(=O)C[C@@H](C(=O)N2CCCCC2)N(C)C(=O)[C@H](CC2CCC2)N(C)C(=O)C2(CCCC2)NC(=O)[C@@H]2CCCN2C(=O)[C@H](CCc2ccc(C(F)(F)F)c(Cl)c2)NC(=O)CN(C)C(=O)[C@H](CC2CCCCC2)N(C)C(=O)CN(C)C(=O)CN(C)C1=O [Compound 968] ([NMeL]I[Sar][Sar][NMeCha][Sar][hPhe(3-Cl-4-CF3)]P[Ac5c][NMeCba][NMeD]-Piperidide; lactam N-11) | 3.1 | 100 to 500 |
| CC[C@H](C)[C@@H]1NC(=O)[C@H](C2CC2)N(C)C(=O)C[C@@H](C(=O)N2CCCCC2)N(C)C(=O)[C@H](C(C)C)N(C)C(=O)C2(CCCC2)NC(=O)[C@@H]2CCCN2C(=O)[C@H](CCc2ccc(C(F)(F)F)c(Cl)c2)NC(=O)CN(C)C(=O)[C@H](CC2CCCCC2)N(C)C(=O)CN(C)C(=O)CN(C)C1=O [Compound 980] ([NMeGly(cPr)]I[Sar][Sar][NMeCha][Sar][hPhe(3-Cl-4-CF3)]P[Ac5c][NMeV][NMeD]-Piperidide; lactam N-11) | 3.8 | 100 to 500 |
| CC[C@H](C)[C@@H]1NC(=O)[C@H](CC2CCCCC2)N(C)C(=O)C[C@@H](C(=O)N2CCCCC2)N(C)C(=O)[C@H](C2CCCCC2)N(C)C(=O)C2(CCCC2)NC(=O)[C@@H]2CCCN2C(=O)[C@H](CCc2ccc(C(F)(F)F)c(Cl)c2)NC(=O)CN(C)C(=O)[C@H](CC2CCCCC2)N(C)C(=O)CN(C)C(=O)CN(C)C1=O [Compound 983] ([NMeCha]I[Sar][Sar][NMeCha][Sar][hPhe(3-Cl-4-CF3)]P[Ac5c][NMeChg][NMeD]-Piperidide; lactam N-11) | 1.8 | 100 to 500 |
| CC[C@H](C)[C@@H]1NC(=O)[C@H](CC(C)C)N(C)C(=O)C[C@@H](C(=O)N2CCCCC2)N(C)C(=O)[C@H](C(C)C)N(C)C(=O)C2(CCCC2)NC(=O)[C@@H]2CCCN2C(=O)[C@H](CCc2ccc(C(F)(F)F)c(Cl)c2)NC(=O)CN(C)C(=O)[C@H](CC2CCCCC2)N(C)C(=O)[C@@H]2CCN2C(=O)[C@@H]2CCCCN2C1=O [Compound 988] ([NMeL]I[Pip][Aze][NMeCha][Sar][hPhe(3-Cl-4-CF3)]P[Ac5c][NMeV][NMeD]-Piperidide; lactam N-11) | 12 | 100 to 500 |
| CCCC[C@@H]1NC(=O)[C@H](Cc2cccc(I)c2)NC(=O)CN(C)C(=O)[C@H](Cc2ccc(Cl)cc2)N(C)C(=O)CN(C)C(=O)CN(C)C(=O)[C@H]([C@@H](C)CC)NC(=O)[C@H](CC(C)C)N(C)C(=O)C[C@@H](C(=O)N2CCCCC2)N(C)C(=O)[C@H](CC(C)C)NC(=O)[C@H](Cc2ccc(F)cc2)N(C)C1=O [Compound 997] ([NMeL]I[Sar][Sar][NMePhe(4-Cl)][Sar][Phe(3-I)][Nle][NMePhe(4-F)]L[NMeD]-Piperidide; lactam N-11) | 24 | 100 to 500 |
| CC[C@H](C)[C@@H]1NC(=O)[C@H](CC(C)C)N(C)C(=O)C[C@@H](C(=O)N(C)C)N(C)C(=O)[C@H]([C@@H](C)CC)N(C)C(=O)C2(CCCC2)NC(=O)[C@H](Cc2cccc(F)c2)N(C)C(=O)[C@H](CCc2ccc(C(F)(F)F)c(Cl)c2)NC(=O)CN(C)C(=O)[C@H](Cc2ccc(C)cc2)N(C)C(=O)[C@@H]2CCN2C(=O)[C@H](C)N(C)C1=O [Compound 1000] ([NMeL]I[NMeA][Aze][NMePhe(4-Me)][Sar][hPhe(3-Cl-4-CF3)][NMePhe(3-F)][Ac5c][NMeI][NMeD]-NMe2; lactam N-11) | 2.6 | 20 to 50 |
| CC[C@H](C)[C@@H]1NC(=O)[C@H](CC(F)(F)F)N(C)C(=O)C[C@@H](C(=O)N2CCOCC2)N(C)C(=O)[C@H](C2CCCCC2)N(C)C(=O)C2(CCCC2)NC(=O)[C@@H]2CCCN2C(=O)[C@H](CCc2ccc(C(F)(F)F)c(Cl)c2)NC(=O)CN(C)C(=O)[C@H](Cc2ccc(C)cc2)N(C)C(=O)CN(C)C(=O)CN(C)C1=O [Compound 1001] ([NMeAbu(4,4,4-F3)]I[Sar][Sar][NMePhe(4-Me)][Sar][hPhe(3-Cl-4-CF3)]P[Ac5c][NMeChg][NMeD]-Morpholide; lactam N-11) | 0.44 | 20 to 50 |
| CC[C@H](C)[C@@H]1NC(=O)[C@H](CC(C)C)N(C)C(=O)C[C@@H](C)N(C)C(=O)[C@H](CC2CC2)N(C)C(=O)C2(CCCC2)NC(=O)[C@@H]2CCCN2C(=O)[C@H](CCc2ccc(C(F)(F)F)c(Cl)c2)NC(=O)CN(C)C(=O)[C@H](CC2CCCCC2)N(C)C(=O)CN(C)C(=O)CN(C)C1=O [Compound 1019] (cyclo([Ac5c][NMeAla(cPr)][NMedβ3hAla][NMeL]I[Sar][Sar][NMeCha][Sar][hPhe(3-Cl-4-CF3)]P)) | 14 | 100 to 500 |
| CC[C@H](C)[C@@H]1NC(=O)[C@H](CC(C)C)N(C)C(=O)C[C@@H](C(=O)N2CCCCC2)N(C)C(=O)[C@H](C2CCCCC2)N(C)C(=O)C2(CCCC2)NC(=O)[C@@H]2CC(=O)CN2C(=O)[C@H](CCc2ccc(C(F)(F)F)c(Cl)c2)NC(=O)CN(C)C(=O)[C@H](CC2CCCCC2)N(C)C(=O)CN(C)C(=O)CN(C)C1=O [Compound 1022] ([NMeL]I[Sar][Sar][NMeCha][Sar][hPhe(3-Cl-4-CF3)][Pro(4-oxo)][Ac5c][NMeChg][NMeD]-Piperidide; lactam N-11) | 0.42 | 100 to 500 |
